Patent publication US8759104B2, “Cationic lipids” (The University Court of the University of Edinburgh, priority 2010, dated 2014)

The compounds below were run on HeLa cells (assay: Transfection of pEGFP-C1 reporter plasmid into HeLa cells, GFP expression by flow cytometry). Conditions: HeLa cells 48 h after transfection with reporter plasmid, flow cytometry.
Assay type: cell-based, human
Procedure: The corresponding cationic lipid (1 mM in methanol) were mixed in different proportions with DOPE (10 mg/mL in chloroform) and the organic solvent removed by evaporation in an oven (37° C.) overnight. The resultant thin films were then hydrated with PBS. The solutions were vortexed (10-20 s) and incubated at ambient temperature for 20 min. Plasmid DNA or siRNA solution (0.04 mg/mL in PBS or another isotonic solution) was subsequently added and the solution vortexed (10-20 s). The lipoplexes were incubated at room temperature for 20 min before being used.
Human HeLa cells were grown in RPMI supplemented with 4 mM glutamine, 10% FCS and 100 units/ml penicillin/streptomycin (RPMI-CM) until 80% confluence. HEK293 and B16F10 cells were grown in DMEM supplemented with 4 mM glutamine, 10% FCS and 100 units/ml penicillin/streptomycin (DMEM-CM) until 80% confluence. Cells were then suspended using trypsin/EDTA and counted. 2×10^4 cells in 150 μL of media per well were seeded in 96 well plates and incubated overnight. The day afterwards, the different lipoplex formulations were added. Each experiment was performed in quadruplicate, using Effectene® Transfection Reagent (Qiagen), Lipofectamine™ 2000 (Invitrogen) and Fugene (Roche) as positive controls and untreated cells as negative controls. After two days incubation at 37° C. and 5% CO2 (the change of media after transfection was not necessary), the green fluorescent protein (GFP) expression, as a consequence of transfecting the pEGFP-C1, was evidenced using a fluorescent microscope (Leica) and measured by flow cytometry. For the flow cytometry analysis, cells were washed twice with PBS, detached with trypsin/EDTA, harvested with 2% ferum bovine serum (FBS) in PBS, centrifuged and resuspended with 2% FBS in PBS and analyzed using a BD FACSaria flow cytometer. Transfection efficiency was measured as percentage of transfected cells.
Reagents that obtained greater than 50% transfection were also analyzed against HEK293 and B16F10 cell lines. Transfection results (+ percentages of transfection between 5-25%; ++ percentages of transfection between 25-50%; N.D. not determined). MTT toxicity assay results are indicated between brackets with 100% being cell viability of untreated cells.

Compound	Transfection results (percentage of transfected cells), HeLa
CCCCCCCCCCCCCCCC(=O)NCCCN(CCCNC(=O)CCCCCCCCCCCCCCC)C(=O)/C=C\C(=O)N[C@@H](CCCNC(=N)N)C(=O)N[C@@H](CCCNC(=N)N)C(N)=O.O=C(O)C(F)(F)F.O=C(O)C(F)(F)F [Compound A2-Sp4-P]	+ (percentages of transfection between 5-25%)
CCCCCCCCCCCCCCCCCC(=O)NCCCN(CCCNC(=O)CCCCCCCCCCCCCCCCC)C(=O)/C=C\C(=O)N[C@@H](CCCNC(=N)N)C(N)=O.O=C(O)C(F)(F)F [Compound A1-Sp4-S]	+ (percentages of transfection between 5-25%)
CCCCCCCCCCCCCCCCCC(=O)NCCN(CCNC(=O)CCCCCCCCCCCCCCCCC)C(=O)/C=C\C(=O)N[C@@H](CCCNC(=N)N)C(N)=O.O=C(O)C(F)(F)F [Compound A1-Sp2-S]	+ (percentages of transfection between 5-25%)
CCCCCCCCCCCCCCCCCCCCCCCC(=O)NCCCN(CCCNC(=O)CCCCCCCCCCCCCCCCCCCCCCC)C(=O)/C=C\C(=O)N[C@@H](CCCNC(=N)N)C(N)=O.O=C(O)C(F)(F)F [Compound A1-Sp4-L]	+ (percentages of transfection between 5-25%)
CCCCCCCCCCCCCCCCCCCC(=O)NCCCN(CCCNC(=O)CCCCCCCCCCCCCCCCCCC)C(=O)/C=C\C(=O)N[C@@H](CCCNC(=N)N)C(=O)N[C@@H](CCCNC(=N)N)C(=O)N[C@@H](CCCNC(=N)N)C(N)=O.O=C(O)C(F)(F)F.O=C(O)C(F)(F)F.O=C(O)C(F)(F)F [Compound A3-Sp4-A]	+ (percentages of transfection between 5-25%)
CCCCCCCCCCCCCCCCCCCCCCCC(=O)NCCN(CCNC(=O)CCCCCCCCCCCCCCCCCCCCCCC)C(=O)CCC(=O)N[C@@H](CCCNC(=N)N)C(=O)N[C@@H](CCCNC(=N)N)C(=O)N[C@@H](CCCNC(=N)N)C(N)=O.O=C(O)C(F)(F)F.O=C(O)C(F)(F)F.O=C(O)C(F)(F)F [Compound A3-Sp1-L]	+ (percentages of transfection between 5-25%)
CCCCCCCC/C=C\CCCCCCCC(=O)NCCCN(CCCNC(=O)CCCCCCC/C=C\CCCCCCCC)C(=O)CCC(=O)N[C@@H](CCCNC(=N)N)C(N)=O.O=C(O)C(F)(F)F [Compound A1-Sp3-O]	++ (percentages of transfection between 25-50%)
CCCCCCCCCCCCCCCCCCCC(=O)NCCCN(CCCNC(=O)CCCCCCCCCCCCCCCCCCC)C(=O)CCC(=O)N[C@@H](CCCNC(=N)N)C(N)=O.O=C(O)C(F)(F)F [Compound A1-Sp3-A]	+ (percentages of transfection between 5-25%)
CCCCCCCCCCCCCCCCCC(=O)NCCCN(CCCNC(=O)CCCCCCCCCCCCCCCCC)C(=O)CCC(=O)N[C@@H](CCCNC(=N)N)C(=O)N[C@@H](CCCNC(=N)N)C(=O)N[C@@H](CCCNC(=N)N)C(N)=O.O=C(O)C(F)(F)F.O=C(O)C(F)(F)F.O=C(O)C(F)(F)F [Compound A3-Sp3-S]	+ (percentages of transfection between 5-25%)
CCCCCCCCCCCCCCCCCCCC(=O)NCCN(CCNC(=O)CCCCCCCCCCCCCCCCCCC)C(=O)CCC(=O)N[C@@H](CCCNC(=N)N)C(N)=O.O=C(O)C(F)(F)F [Compound A1-Sp1-A]	+ (percentages of transfection between 5-25%)
CCCCCCCCCCCCCCCCCC(=O)NCCN(CCNC(=O)CCCCCCCCCCCCCCCCC)C(=O)CCC(=O)N[C@@H](CCCNC(=N)N)C(N)=O.O=C(O)C(F)(F)F [Compound A1-Sp1-S]	+ (percentages of transfection between 5-25%)
CCCCCCCCCCCCCCCC(=O)NCCCN(CCCNC(=O)CCCCCCCCCCCCCCC)C(=O)CCC(=O)N[C@@H](CCCNC(=N)N)C(N)=O.O=C(O)C(F)(F)F [Compound A1-Sp3-P]	+ (percentages of transfection between 5-25%)
CCCCCCCCCCCCCCCCCCCC(=O)NCCN(CCNC(=O)CCCCCCCCCCCCCCCCCCC)C(=O)/C=C\C(=O)N[C@@H](CCCNC(=N)N)C(=O)N[C@@H](CCCNC(=N)N)C(=O)N[C@@H](CCCNC(=N)N)C(N)=O.O=C(O)C(F)(F)F.O=C(O)C(F)(F)F.O=C(O)C(F)(F)F [Compound A3-Sp2-A]	+ (percentages of transfection between 5-25%)
CCCCCCCCCCCCCCCCCC(=O)NCCN(CCNC(=O)CCCCCCCCCCCCCCCCC)C(=O)/C=C\C(=O)N[C@@H](CCCNC(=N)N)C(=O)N[C@@H](CCCNC(=N)N)C(=O)N[C@@H](CCCNC(=N)N)C(N)=O.O=C(O)C(F)(F)F.O=C(O)C(F)(F)F.O=C(O)C(F)(F)F [Compound A3-Sp2-S]	++ (percentages of transfection between 25-50%)
CCCCCCCCCCCCCCCC(=O)NCCCN(CCCNC(=O)CCCCCCCCCCCCCCC)C(=O)/C=C\C(=O)N[C@@H](CCCNC(=N)N)C(=O)N[C@@H](CCCNC(=N)N)C(=O)N[C@@H](CCCNC(=N)N)C(N)=O.O=C(O)C(F)(F)F.O=C(O)C(F)(F)F.O=C(O)C(F)(F)F [Compound A3-Sp4-P]	+ (percentages of transfection between 5-25%)
CCCCCCCC/C=C\CCCCCCCC(=O)NCCCN(CCCNC(=O)CCCCCCC/C=C\CCCCCCCC)C(=O)/C=C\C(=O)N[C@@H](CCCNC(=N)N)C(=O)N[C@@H](CCCNC(=N)N)C(=O)N[C@@H](CCCNC(=N)N)C(N)=O.O=C(O)C(F)(F)F.O=C(O)C(F)(F)F.O=C(O)C(F)(F)F [Compound A3-Sp4-O]	+ (percentages of transfection between 5-25%)
CCCCCCCCCCCCCCCCCCCCCCCC(=O)NCCN(CCNC(=O)CCCCCCCCCCCCCCCCCCCCCCC)C(=O)CCC(=O)N[C@@H](CCCNC(=N)N)C(=O)N[C@@H](CCCNC(=N)N)C(N)=O.O=C(O)C(F)(F)F.O=C(O)C(F)(F)F [Compound A2-Sp1-L]	+ (percentages of transfection between 5-25%)
CCCCCCCCCCCCCCCCCC(=O)NCCCN(CCCNC(=O)CCCCCCCCCCCCCCCCC)C(=O)CCC(=O)N[C@@H](CCCNC(=N)N)C(N)=O.O=C(O)C(F)(F)F [Compound A1-Sp3-S]	+ (percentages of transfection between 5-25%)
CCCCCCCCCCCCCCCCCCCC(=O)NCCN(CCNC(=O)CCCCCCCCCCCCCCCCCCC)C(=O)/C=C\C(=O)N[C@@H](CCCNC(=N)N)C(N)=O.O=C(O)C(F)(F)F [Compound A1-Sp2-A]	+ (percentages of transfection between 5-25%)
CCCCCCCCCCCCCCCCCCCC(=O)NCCCN(CCCNC(=O)CCCCCCCCCCCCCCCCCCC)C(=O)/C=C\C(=O)N[C@@H](CCCNC(=N)N)C(=O)N[C@@H](CCCNC(=N)N)C(N)=O.O=C(O)C(F)(F)F.O=C(O)C(F)(F)F [Compound A2-Sp4-A]	+ (percentages of transfection between 5-25%)
CCCCCCCC/C=C\CCCCCCCC(=O)NCCN(CCNC(=O)CCCCCCC/C=C\CCCCCCCC)C(=O)/C=C\C(=O)N[C@@H](CCCNC(=N)N)C(=O)N[C@@H](CCCNC(=N)N)C(=O)N[C@@H](CCCNC(=N)N)C(N)=O.O=C(O)C(F)(F)F.O=C(O)C(F)(F)F.O=C(O)C(F)(F)F [Compound A3-Sp2-O]	++ (percentages of transfection between 25-50%)
CCCCCCCCCCCCCCCCCC(=O)NCCN(CCNC(=O)CCCCCCCCCCCCCCCCC)C(=O)CCC(=O)N[C@@H](CCCNC(=N)N)C(=O)N[C@@H](CCCNC(=N)N)C(=O)N[C@@H](CCCNC(=N)N)C(N)=O.O=C(O)C(F)(F)F.O=C(O)C(F)(F)F.O=C(O)C(F)(F)F [Compound A3-Sp1-S]	++ (percentages of transfection between 25-50%)
CCCCCCCCCCCCCCCCCCCCCCCC(=O)NCCN(CCNC(=O)CCCCCCCCCCCCCCCCCCCCCCC)C(=O)/C=C\C(=O)N[C@@H](CCCNC(=N)N)C(=O)N[C@@H](CCCNC(=N)N)C(=O)N[C@@H](CCCNC(=N)N)C(N)=O.O=C(O)C(F)(F)F.O=C(O)C(F)(F)F.O=C(O)C(F)(F)F [Compound A3-Sp2-L]	+ (percentages of transfection between 5-25%)
CCCCCCCCCCCCCCCCCCCC(=O)NCCN(CCNC(=O)CCCCCCCCCCCCCCCCCCC)C(=O)CCC(=O)N[C@@H](CCCNC(=N)N)C(=O)N[C@@H](CCCNC(=N)N)C(N)=O.O=C(O)C(F)(F)F.O=C(O)C(F)(F)F [Compound A2-Sp1-A]	+ (percentages of transfection between 5-25%)
CCCCCCCCCCCCCCCCCC(=O)NCCCN(CCCNC(=O)CCCCCCCCCCCCCCCCC)C(=O)/C=C\C(=O)N[C@@H](CCCNC(=N)N)C(=O)N[C@@H](CCCNC(=N)N)C(N)=O.O=C(O)C(F)(F)F.O=C(O)C(F)(F)F [Compound A2-Sp4-S]	+ (percentages of transfection between 5-25%)
